Laboratory results published in US20220298107A1, “SUBSTITUTED UREA DIHYDROOROTATE DEHYDROGENASE INHIBITORS” (Janssen Biotech, Inc., priority 2019, published 2022).

Assays:
human DHODH = human DHODH (Homo sapiens, UniProt Q02127); test: biochemical
Protocol: To detect DHODH enzyme activities, dichloroindophenol (DCIP) is added as the final electron acceptor in the assay. DCIP can accept electrons from the reduced coenzyme Q generated in the assay, or from dihydroorotate (DHO) via flavin mononucleotide (FMN) by binding presumably to the ubiquinone pocket. […] The assay buffer contained […], pH 7.5, 150 mM NaCl, 0.5 mM EDTA, and 0.1% Triton X-100 in MilliQ water. Substrate consisting of 20 mM DHO, 5 mM CoQ6, and 1 mM DCIP in assay buffer, initiates the reaction. […] Absorbance measurements were obtained using the BMG Phera Star plate-reading spectrophotomer. Purified human DHODH was purchased from Proteros (cat. No. PR-0044). Chemicals were purchased from Sigma-Aldrich, Teknova, and Avanti Polar Lipids. Liquid handling was performed using Labcyte Echo and Formulatrix Tempest.

MOLM-13 cells = test: MOLM-13 Cellular Assay; format: cell-based; settings: Homo sapiens, MOLM-13, 72 h, read-out: MOLM-13 Cellular Assay EC50 (nM)
Protocol: MOLM-13 cells were obtained from DSMZ and were maintained in RPMI 1640+Glutamax+25 mM HEPES (Invitrogen, catalog number 72400) supplemented with 10% heat inactivated fetal bovine serum (FBS; Invitrogen, catalog number 16140). The day prior to assay set-up, cells were pelleted, resuspended in fresh media, counted, and cells were plated at 0.4×10^6 cell/mL in a T150 flask. On the day of the assay, cells were pelleted, resuspend in fresh media, counted and seeded at 5,000 cells/well in white opaque 96-well tissue culture treated microplates (Perkin Elmer, catalog number 6005680). Cells were exposed to different concentrations of test compounds at 37° C., 5% CO2 for 72 hours immediately after seeding. Cell viability was acquired on a Perkin Elmer Envision 2104 multilabel reader using the CellTiter-Glo assay (Promega) according to the manufacturer's instructions.

Sequence of human DHODH (Q02127 whole entry): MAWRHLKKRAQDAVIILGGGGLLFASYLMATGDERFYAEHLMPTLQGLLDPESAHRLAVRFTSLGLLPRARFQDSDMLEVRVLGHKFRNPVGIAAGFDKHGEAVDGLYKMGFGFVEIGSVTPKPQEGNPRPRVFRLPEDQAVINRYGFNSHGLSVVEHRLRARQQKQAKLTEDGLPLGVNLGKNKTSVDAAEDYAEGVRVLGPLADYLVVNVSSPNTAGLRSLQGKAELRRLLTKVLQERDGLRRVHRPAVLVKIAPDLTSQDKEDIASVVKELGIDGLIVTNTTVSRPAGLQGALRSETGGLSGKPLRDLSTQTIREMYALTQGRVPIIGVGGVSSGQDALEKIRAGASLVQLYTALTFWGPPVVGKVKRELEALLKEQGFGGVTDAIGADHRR

| SMILES | EC50 (human DHODH) [µM] | EC50 (MOLM-13 cells) [nM] |
| --- | --- | --- |
| COC1CCN(C(=O)Nc2cc(O[C@@H](C)C(F)(F)F)c(C(=O)Nc3c(F)cccc3Cl)cc2F)C1 (stereo partly drawn) [Example 29, N-(4-((2-Chloro-6-fluorophenyl)carbamoyl)-2-fluoro-5-(((S)-1,1,1-trifluoropropan-2-yl)oxy)phenyl)-3-methoxypyrrolidine-1-carboxamide] | 0.085 | 40 |
| CCN(CC(F)F)C(=O)Nc1cc(O[C@@H](C)C(F)(F)F)c(C(=O)Nc2c(C)cnc(OC)c2Cl)cc1F [Example 44, (S)-N-(3-Chloro-2-methoxy-5-methylpyridin-4-yl)-4-(3-(2,2-difluoroethyl)-3-ethylureido)-5-fluoro-2-((1,1,1-trifluoropropan-2-yl)oxy)benzamide] | 0.007 | 9.6 |
| CCN(CC(F)F)C(=O)Nc1cc(O[C@@H](C)C(F)(F)F)c(C(=O)Nc2c(C)ccnc2OC)cc1F [Example 43, (S)-4-(3-(2,2-difluoroethyl)-3-ethylureido)-5-fluoro-N-(2-methoxy-4-methylpyridin-3-yl)-2-((1,1,1-trifluoropropan-2-yl)oxy)benzamide] | 0.024 | 30 |
| CCN(CCO)C(=O)Nc1cc(O[C@@H](C)C(F)(F)F)c(C(=O)Nc2c(F)cccc2Cl)cc1F [Example 3, (S)-N-(2-Chloro-6-fluorophenyl)-4-(3-ethyl-3-(2-hydroxyethyl)ureido)-5-fluoro-2-((1,1,1-trifluoropropan-2-yl)oxy)benzamide] | – | 1.2 |
| C[C@H](Oc1cc(NC(=O)N(C)CCF)c(F)cc1C(=O)Nc1c(F)cccc1Cl)C(F)(F)F [Example 16, (S)-N-(2-chloro-6-fluorophenyl)-5-fluoro-4-(3-(2-fluoroethyl)-3-methylureido)-2-((1,1,1-trifluoropropan-2-yl)oxy)benzamide] | 0.0047 | – |
| C[C@H](Oc1cc(NC(=O)N(C)CC#N)c(F)cc1C(=O)Nc1c(F)cccc1Cl)C(F)(F)F [Example 26, (S)-N-(2-Chloro-6-fluorophenyl)-4-(3-(cyanomethyl)-3-methylureido)-5-fluoro-2-((1,1,1-trifluoropropan-2-yl)oxy)benzamide] | 7.97 | 170 |
| Cc1ccnc(Cl)c1NC(=O)c1cc(F)c(NC(=O)N2CCC[C@@H]2CO)cc1O[C@@H](C)C(F)(F)F [Example 36, (R)-N-(4-((2-Chloro-4-methylpyridin-3-yl)carbamoyl)-2-fluoro-5-(((S)-1,1,1-trifluoropropan-2-yl)oxy)phenyl)-2-(hydroxymethyl)pyrrolidine-1-carboxamide] | 0.0026 | 6.6 |
| CCN(CCOC)C(=O)Nc1cc(O[C@@H](C)C(F)(F)F)c(C(=O)Nc2c(F)cccc2Cl)cc1F [Example 6, (S)-N-(2-Chloro-6-fluorophenyl)-4-(3-ethyl-3-(2-methoxyethyl)ureido)-5-fluoro-2-((1,1,1-trifluoropropan-2-yl)oxy)benzamide] | 0.0036 | 1.2 |
| C[C@H](Oc1cc(NC(=O)N2CC(CF)C2)c(F)cc1C(=O)Nc1c(F)cccc1Cl)C(F)(F)F [Example 25, (S)-N-(4-((2-Chloro-6-fluorophenyl)carbamoyl)-2-fluoro-5-((1,1,1-trifluoropropan-2-yl)oxy)phenyl)-3-(fluoromethyl)azetidine-1-carboxamide] | 0.21 | 110 |
| C[C@H](Oc1cc(NC(=O)N2CCCCC2)c(F)cc1C(=O)Nc1c(F)cccc1Cl)C(F)(F)F [Example 2, (S)-N-(4-((2-Chloro-6-fluorophenyl)carbamoyl)-2-fluoro-5-((1,1,1-trifluoropropan-2-yl)oxy)phenyl)piperidine-1-carboxamide] | 0.02 | 12 |
| C[C@H](Oc1cc(NC(=O)N2CCC(O)C2)c(F)cc1C(=O)Nc1c(F)cccc1Cl)C(F)(F)F (stereo partly drawn) [Example 30, N-(4-((2-Chloro-6-fluorophenyl)carbamoyl)-2-fluoro-5-(((S)-1,1,1-trifluoropropan-2-yl)oxy)phenyl)-3-hydroxypyrrolidine-1-carboxamide] | 0.12 | 57 |
| C[C@H](Oc1cc(NC(=O)N2CC(F)C2)c(F)cc1C(=O)Nc1c(F)cccc1Cl)C(F)(F)F [Example 22, (S)-N-(4-((2-Chloro-6-fluorophenyl)carbamoyl)-2-fluoro-5-((1,1,1-trifluoropropan-2-yl)oxy)phenyl)-3-fluoroazetidine-1-carboxamide] | 0.0072 | – |
| CCCN(C)C(=O)Nc1cc(O[C@@H](C)C(F)(F)F)c(C(=O)Nc2c(F)cccc2Cl)cc1F [Example 14, (S)-N-(2-Chloro-6-fluorophenyl)-5-fluoro-4-(3-methyl-3-propylureido)-2-((1,1,1-trifluoropropan-2-yl)oxy)benzamide] | 0.0079 | – |
| CCN(CC(F)F)C(=O)Nc1cc(O[C@@H](C)C(F)(F)F)c(C(=O)Nc2c(F)cccc2Cl)cc1F [Example 7, (S)-N-(2-chloro-6-fluorophenyl)-4-(3-(2,2-difluoroethyl)-3-ethylureido)-5-fluoro-2-((1,1,1-trifluoropropan-2-yl)oxy)benzamide] | – | 1.9 |
| CCCN(CC)C(=O)Nc1cc(O[C@@H](C)C(F)(F)F)c(C(=O)Nc2c(F)cccc2Cl)cc1F [Example 15, (S)-N-(2-Chloro-6-fluorophenyl)-4-(3-ethyl-3-propylureido)-5-fluoro-2-((1,1,1-trifluoropropan-2-yl)oxy)benzamide] | 0.02 | – |
| C[C@H](Oc1cc(NC(=O)N2CCC(CO)C2)c(F)cc1C(=O)Nc1c(F)cccc1Cl)C(F)(F)F (stereo partly drawn) [Example 13, N-(4-((2-Chloro-6-fluorophenyl)carbamoyl)-2-fluoro-5-(((S)-1,1,1-trifluoropropan-2-yl)oxy)phenyl)-3-(hydroxymethyl)pyrrolidine-1-carboxamide] | 0.95 | 220 |
| COc1ncc(C)c(NC(=O)c2cc(F)c(NC(=O)N3CCC[C@@H]3CO)cc2O[C@@H](C)C(F)(F)F)c1C [Example 40, (R)-N-(2-Fluoro-4-((2-methoxy-3,5-dimethylpyridin-4-yl)carbamoyl)-5-(((S)-1,1,1-trifluoropropan-2-yl)oxy)phenyl)-2-(hydroxymethyl)pyrrolidine-1-carboxamide] | 0.0036 | 25 |
| C[C@H](Oc1cc(NC(=O)N2CCC2)c(F)cc1C(=O)Nc1c(F)cccc1Cl)C(F)(F)F [Example 20, (S)-N-(4-((2-Chloro-6-fluorophenyl)carbamoyl)-2-fluoro-5-((1,1,1-trifluoropropan-2-yl)oxy)phenyl)azetidine-1-carboxamide] | 0.0028 | – |
| C[C@H](Oc1cc(NC(=O)N2CCC(F)C2)c(F)cc1C(=O)Nc1c(F)cccc1Cl)C(F)(F)F (stereo partly drawn) [Example 32, N-(4-((2-Chloro-6-fluorophenyl)carbamoyl)-2-fluoro-5-(((S)-1,1,1-trifluoropropan-2-yl)oxy)phenyl)-3-fluoropyrrolidine-1-carboxamide] | 0.013 | 5.8 |
| CCN(CC(F)F)C(=O)Nc1cc(O[C@@H](C)C(F)(F)F)c(C(=O)Nc2c(C)ccnc2Cl)cc1F [Example 41, (S)-N-(2-Chloro-4-methylpyridin-3-yl)-4-(3-(2,2-difluoroethyl)-3-ethylureido)-5-fluoro-2-((1,1,1-trifluoropropan-2-yl)oxy)benzamide] | 0.017 | 37 |
| CC(C)NC(=O)Nc1cc(O[C@@H](C)C(F)(F)F)c(C(=O)Nc2c(F)cccc2Cl)cc1F [Example 9, (S)-N-(2-Chloro-6-fluorophenyl)-5-fluoro-4-(3-isopropylureido)-2-((1,1,1-trifluoropropan-2-yl)oxy)benzamide] | 0.49 | 89 |
| CCN(CC(F)F)C(=O)Nc1cc(O[C@@H](C)C(F)(F)F)c(C(=O)Nc2c(C)n[nH]c2Cl)cc1F [Example 42, (S)-N-(5-Chloro-3-methyl-1H-pyrazol-4-yl)-4-(3-(2,2-difluoroethyl)-3-ethylureido)-5-fluoro-2-((1,1,1-trifluoropropan-2-yl)oxy)benzamide] | 0.003 | 11 |
| Cc1n[nH]c(Cl)c1NC(=O)c1cc(F)c(NC(=O)N2CCC[C@@H]2CO)cc1O[C@@H](C)C(F)(F)F [Example 37, (R)-N-(4-((5-Chloro-3-methyl-1H-pyrazol-4-yl)carbamoyl)-2-fluoro-5-(((S)-1,1,1-trifluoropropan-2-yl)oxy)phenyl)-2-(hydroxymethyl)pyrrolidine-1-carboxamide] | 0.0007 | 11 |
| COc1ncc(C)c(NC(=O)c2cc(F)c(NC(=O)N3CCC[C@@H]3CO)cc2O[C@@H](C)C(F)(F)F)c1Cl [Example 39, (R)-N-(4-((3-Chloro-2-methoxy-5-methylpyridin-4-yl)carbamoyl)-2-fluoro-5-(((S)-1,1,1-trifluoropropan-2-yl)oxy)phenyl)-2-(hydroxymethyl)pyrrolidine-1-carboxamide] | 0.0026 | 3.5 |
| C[C@H](Oc1cc(NC(=O)N(C)CCC#N)c(F)cc1C(=O)Nc1c(F)cccc1Cl)C(F)(F)F [Example 17, (S)-N-(2-Chloro-6-fluorophenyl)-4-(3-(2-cyanoethyl)-3-methylureido)-5-fluoro-2-((1,1,1-trifluoropropan-2-yl)oxy)benzamide] | 0.2 | – |
